In US12509447B2, “Small molecule compound” (Technoderma Medicines Pte Ltd, priority 2019, dated 2025) one finds IC50 data, which are given here for 19 molecules.

Broadly, the IC50 is the concentration at which inhibition is half-maximal. Low values mean inhibition by little substance, high ones a need for much substance.

Assay [1] addresses Tyk2 (Homo sapiens, UniProt P29597). Description: Inhibition of JAK kinase activity, EZ Reader microfluidic phosphorylation of peptide substrate: Tyk2. The following applies: Tyk2 kinase 1 nM; highest final concentration 10 μM, 1:3 serial dilution, 8 points, duplicates. In kind it is biochemical. The source says:
(§1) EZ Reader available from PerkinElmer can be used for detecting the phosphorylation of polypeptide substrates catalyzed by kinases. This device is based on microfluidic separation technology, and can directly detect fluorescence labeled substrates and products. The separation step is achieved in a microfluidic chip by controlling the pressure and electric field intensity. In a kinase experiment, the product conversion rate is generally controlled at 20-30%. This biological assay method is used for identifying the inhibitory effect of the compounds on JAK.
(§2) The compound powder was dissolved in DMSO, sealed and stored in a refrigerator at −20° C. The in-house compound Ref1 was used as a positive control for testing of JAK1, JAK2 and Tyk2, and Ref2 was used as a positive control for testing of JAK3.
(§3) • S2.1. 1M HEPES buffer: 0.5M HEPES free acid and 0.5M HEPES sodium salt are weighed, added into ultrapure water for dissolution, brought to a desired volume, filtered and stored in a refrigerator at 4° C. • S2.2. 40 mM ATP solution: dissolved in a 50 mM HEPES buffer solution, prepared into 40 mM, aliquoted, and cryopreserved in a refrigerator at −20° C. • S2.3. 0.5% Tween 20: 100% Tween 20 was diluted with ultrapure water, and stored in a refrigerator at 4° C. • S2.4. 35% bovine serum albumin: a 35% bovine serum albumin solution is prepared in ultrapure water, aliquoted, and stored in a refrigerator at −20° C. • S2.5. 1M dithiothreitol solution: dithiothreitol is formulated into a 1M solution with ultrapure water, aliquoted, and stored in a refrigerator at −20° C. • S2.6. 0.5 mM Jaktide Peptide substrate solution: it is dissolved in 50 mM HEPES to 0.5 mM, aliquoted, and stored in a refrigerator at −20° C. • S2.7. 0.5 mM IRStide Peptide substrate solution: it is dissolved in 50 mM HEPES to 0.5 mM, aliquoted, and stored in a refrigerator at −20° C. • S2.8. Assay Buffer: 20 mM HEPES buffer, pH 7.4, 10 mM magnesium chloride, 0.01% bovine serum albumin BSA, 0.0005% Tween-20, and a 1 mM dithiothreitol solution. • S2.9. Stop Buffer: 180 mM HEPES buffer, 20 mM ethylenediamine tetraacetic acid (EDTA), and 0.2% Coating Reagent 3. • S2.10. Separation Buffer: 100 mM HEPES buffer, 10 mM EDTA, 0.0005% Tween 20, 0.1% Coating Reagent 3, and 1% dimethyl sulfoxide. 3. Experimental Procedures • S3.1. Preparation of compound plate
(§4) The compound is dissolved in dimethyl sulfoxide to 10 mM, a certain volume is taken and diluted to 0.6 mM, 10 μl of the diluted 0.6 mM solution is taken and added into a 384 microplate or 1:3 serial dilution, with a total of 8 concentration points. • S3.2. Compound layout
(§5) • positive control (HPE1): Ref1, final concentration: 10 μM • positive control (HPE1): Ref2, final concentration: 10 μM • negative control (ZPE): DMSO, with a final concentration of 1.6% • Compound: the highest final concentration at 10 μM, 1:3 serial dilution, with 8 concentration points and in duplicates. 4. Experimental operation steps • S4.1. the experimental plate was added with 250 nl of the compound per well with ECHO, and centrifuged at 1,000 rpm for 1 minute; • S4.2. the precipitate was added with 5 μl of the experimental buffer, and shaken for several seconds to fully dissolve the compound; • S4.3. the solution was added with 5 μl of a 3× substrate solution, as well as 5 μl of a 3× kinase solution, and centrifuged at 800 rpm for 1 minute; • S4.4. The final concentrations of JAK1, JAK2, JAK3 and Tyk2 kinases in the reaction system are 20, 1, 1 and 1 nM, respectively. • S4.5. the reaction system is incubated at room temperature, wherein the incubation time of each kinase is different, and there are differences in incubation time of different batches of kinases. • S4.6. When the reaction reaches 20%-30%, the reaction system is added with 15 μl of the stop buffer to terminate the reaction, and centrifuged at 1,000 rpm for 2 minutes. • S4.7. The precipitate was placed onto a EZ Reader for plate reading. • S4.8. […]

For assay [2], the target named is JAK1 (Homo sapiens, UniProt P23458). Description: Inhibition of JAK kinase activity, EZ Reader microfluidic phosphorylation of peptide substrate: JAK1. It counts as biochemical. The settings on record: JAK1 kinase 20 nM; highest final concentration 10 μM, 1:3 serial dilution, 8 points, duplicates.
Chain of JAK1 (P23458 whole entry): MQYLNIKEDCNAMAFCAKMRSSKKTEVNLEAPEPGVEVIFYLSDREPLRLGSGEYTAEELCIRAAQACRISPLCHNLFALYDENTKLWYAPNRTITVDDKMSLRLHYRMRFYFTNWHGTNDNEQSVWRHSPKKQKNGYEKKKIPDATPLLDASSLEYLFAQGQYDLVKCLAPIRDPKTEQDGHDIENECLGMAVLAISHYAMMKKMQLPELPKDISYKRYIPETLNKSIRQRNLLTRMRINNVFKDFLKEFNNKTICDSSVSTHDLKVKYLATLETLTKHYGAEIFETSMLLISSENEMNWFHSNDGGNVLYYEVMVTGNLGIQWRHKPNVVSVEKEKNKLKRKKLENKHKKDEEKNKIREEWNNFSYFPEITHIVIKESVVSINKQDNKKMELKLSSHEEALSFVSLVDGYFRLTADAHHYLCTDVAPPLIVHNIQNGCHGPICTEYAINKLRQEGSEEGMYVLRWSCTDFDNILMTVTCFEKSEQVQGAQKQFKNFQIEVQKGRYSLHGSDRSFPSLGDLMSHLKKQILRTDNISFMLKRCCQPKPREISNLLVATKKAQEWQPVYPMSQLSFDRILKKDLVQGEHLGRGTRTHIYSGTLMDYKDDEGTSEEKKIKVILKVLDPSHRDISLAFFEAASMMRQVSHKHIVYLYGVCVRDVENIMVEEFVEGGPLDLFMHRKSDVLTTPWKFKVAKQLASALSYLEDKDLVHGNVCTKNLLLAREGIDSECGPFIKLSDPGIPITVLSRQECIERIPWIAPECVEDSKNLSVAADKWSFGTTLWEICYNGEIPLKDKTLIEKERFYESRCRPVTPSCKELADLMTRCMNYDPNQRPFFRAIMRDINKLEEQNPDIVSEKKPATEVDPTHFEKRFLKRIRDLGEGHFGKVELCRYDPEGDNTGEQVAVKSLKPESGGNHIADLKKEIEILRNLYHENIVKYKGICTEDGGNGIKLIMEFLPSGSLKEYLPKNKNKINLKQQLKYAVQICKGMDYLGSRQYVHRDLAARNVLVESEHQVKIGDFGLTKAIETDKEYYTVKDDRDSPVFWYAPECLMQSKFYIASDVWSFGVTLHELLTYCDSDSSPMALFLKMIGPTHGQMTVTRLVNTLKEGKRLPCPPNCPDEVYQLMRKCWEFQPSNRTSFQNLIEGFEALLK
Text: as §1, §2, §3, §4, §5

Each structure is given as a SMILES string. Bounds are passed on as bounds.

Chain of Tyk2 (P29597 whole entry): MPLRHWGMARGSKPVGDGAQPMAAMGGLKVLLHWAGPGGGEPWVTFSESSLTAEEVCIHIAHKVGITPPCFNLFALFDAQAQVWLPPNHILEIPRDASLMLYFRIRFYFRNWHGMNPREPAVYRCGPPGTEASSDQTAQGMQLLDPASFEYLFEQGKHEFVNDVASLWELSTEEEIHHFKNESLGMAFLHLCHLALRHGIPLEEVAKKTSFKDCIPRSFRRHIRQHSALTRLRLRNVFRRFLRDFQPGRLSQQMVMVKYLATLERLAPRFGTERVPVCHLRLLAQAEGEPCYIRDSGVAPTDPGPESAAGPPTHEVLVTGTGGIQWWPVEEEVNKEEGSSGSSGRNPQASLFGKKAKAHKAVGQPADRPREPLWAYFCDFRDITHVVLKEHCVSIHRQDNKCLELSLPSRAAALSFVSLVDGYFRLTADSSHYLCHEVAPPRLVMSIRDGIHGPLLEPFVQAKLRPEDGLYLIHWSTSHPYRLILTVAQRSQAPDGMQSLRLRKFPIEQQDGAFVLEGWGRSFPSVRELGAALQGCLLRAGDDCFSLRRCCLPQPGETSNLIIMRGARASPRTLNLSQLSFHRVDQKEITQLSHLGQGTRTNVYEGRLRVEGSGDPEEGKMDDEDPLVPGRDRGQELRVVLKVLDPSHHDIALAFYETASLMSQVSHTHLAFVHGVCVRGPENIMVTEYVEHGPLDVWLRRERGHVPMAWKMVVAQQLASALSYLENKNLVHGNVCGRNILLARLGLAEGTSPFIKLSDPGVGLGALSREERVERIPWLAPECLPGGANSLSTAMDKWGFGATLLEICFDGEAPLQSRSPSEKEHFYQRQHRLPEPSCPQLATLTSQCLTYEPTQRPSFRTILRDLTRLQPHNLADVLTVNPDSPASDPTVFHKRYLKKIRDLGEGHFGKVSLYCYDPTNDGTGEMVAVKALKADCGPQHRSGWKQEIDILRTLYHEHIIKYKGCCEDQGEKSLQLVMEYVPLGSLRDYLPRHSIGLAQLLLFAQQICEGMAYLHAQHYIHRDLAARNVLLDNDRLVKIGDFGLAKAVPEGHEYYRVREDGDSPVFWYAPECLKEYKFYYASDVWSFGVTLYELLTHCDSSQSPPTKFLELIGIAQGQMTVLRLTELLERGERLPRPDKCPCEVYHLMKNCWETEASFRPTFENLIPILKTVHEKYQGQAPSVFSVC

For `COCC(=O)N1CC(CC#N)(n2ccc(-c3ccnc(Nc4cnn(C)c4)n3)c2)C1` [TDM-180769, 2-(1-(2-methoxyacetyl)-3-(3-(2-((1-methyl-1H-pyrazol-4-yl)amino)pyrimidin-4-yl)-1H-pyrrol-1-yl)azetidin-3-yl)acetonitrile], the IC50 in assay [1] and in assay [2] was 1 to 10 µM throughout.
As for `COC(=O)CS(=O)(=O)N1CC(CC#N)(n2cc(-c3ccnc(Nc4cnn(C)c4)n3)cn2)C1` [TDM-180930], the IC50 in assay [1] and in assay [2] was 0.1 to 1 µM each time.
In the case of `Cn1cc(Nc2nccc(-c3ccc(C4(CC#N)CN(C(=O)CC#N)C4)cc3)n2)cn1` [TDM-180871, 3-(3-(cyanomethyl)-3-(4-(2-((1-methyl-1H-pyrazol-4-yl)amino)pyrimidin-4-yl)phenyl)azetidin-1-yl)-3-oxopropionitrile], the IC50 in assay [1] and in assay [2] was 0.1 to 1 µM throughout.
For the molecule `CC(C)S(=O)(=O)N1CC(CC#N)(n2cc(-c3ccnc(Nc4cnn(C)c4)n3)cn2)C1` [TDM-180932, 2-(1-(isopropylsulfonyl)-3-(4-(2-((1-methyl-1H-pyrazol-4-yl)amino)pyrimidin-4-yl)-1H-pyrazol-1-yl)azetidinpyridin-3-yl)acetonitrile], the IC50 in assay [1] and in assay [2] was 0.1 to 1 µM each time.
In the case of `Cn1cc(Nc2nccc(-c3ccn(C4(CC#N)CN(C(=O)[C@@H]5CC5(F)F)C4)c3)n2)cn1` [TDM-180937, (S)-2-(1-(2,2-difluorocyclopropane-1-carbonyl)-3-(3-(2-((1-methyl-1H-pyrazol-4-yl)amino)pyrimidin-4-yl)-1H-pyrrol-1-yl)azetidin-3-yl)acetonitrile], the IC50 in assay [1] and in assay [2] was less than 0.1 µM in each case.
With `Cn1cc(Nc2nccc(-c3cnn(C4(CC#N)CN(C(=O)CO)C4)c3)n2)cn1` [TDM-180810, 2-(1-(2-hydroxyacetyl)-3-(4-(2-((1-methyl-1H-pyrazol-4-yl)amino)pyrimidin-4-yl)-1H-pyrazol-1-yl)azetidin-3-yl)acetonitrile], the IC50 in assay [1] and in assay [2] was 1 to 10 µM throughout.
On to `Cn1cc(Nc2nccc(-c3ccn(C4(CC#N)CN(C(=O)C5CC5)C4)n3)n2)cn1` [TDM-180858, 2-(1-(cyclopropanecarbonyl)-3-(3-(2-((1-methy 1-1H-pyrazol-4-yl)amino)pyrimidin-4-yl)-1H-pyrazol-1-yl)azetidinpyridin-3-yl)acetonitrile], for which the concentration for half-maximal inhibition (IC50) in assay [1] and in assay [2] was 1 to 10 µM throughout.
As for `Cn1cc(Nc2nccc(-c3ccn(C4(CC#N)CN(C(=O)C5CC5(F)F)C4)n3)n2)cn1` (centres unmarked) [TDM-180859, 2-(1-(2,2-difluorcyclopropanecarbonyl)-3-(3-(2-((1-methyl-1H-pyrazol-4-yl)amino)pyrimidin-4-yl)-1H-pyrazol-1-yl)azetidin-3-yl)acetonitrile], the 50% inhibitory concentration (IC50) in assay [1] and in assay [2] was 0.1 to 1 µM in each case.
For the molecule `Cn1cc(Nc2nccc(-c3ccn(C4(CC#N)CN(C(=O)CC(F)(F)F)C4)n3)n2)cn1` [TDM-180860, 2-(3-(3-(2-((1-methyl-1H-pyrazol-4-yl)amino)pyrimidin-4-yl)-1H-pyrazol-1-yl)-1-(3,3,3-trifluoropropionyl)azetidin-3-yl)acetonitrile], the IC50 in assay [1] and in assay [2] was 0.1 to 1 µM throughout.
With `Cn1cc(Nc2nccc(-c3ccn(C4(CC#N)CN(S(=O)(=O)C5CC5)C4)n3)n2)cn1` [TDM-180915, 2-(1-(cyclopropylsulfonyl)-3-(3-(2-((1-methyl-1H-pyrazol-4-yl)amino)pyrimidin-4-yl)-1H-pyrazol-1-yl)azetidinpyridin-3-yl)acetonitrile], the IC50 in assay [1] and in assay [2] was 0.1 to 1 µM each time.
With `Cn1cc(Nc2nccc(-c3ccn(C4(CC#N)CN(S(=O)(=O)CC(F)(F)F)C4)n3)n2)cn1` [TDM-180918, 2-(3-(3-(2-((1-methyl-1H-pyrazol-4-yl)amino)pyrimidin-4-yl)-1H-pyrazol-1-yl)-1-((2,2,2-trifluoroethyl)sulfonyl)azetidin-3-yl)acetonitrile], the half-inhibitory concentration (IC50) in assay [1] and in assay [2] was 1 to 10 µM each time.
Regarding `Cn1cc(Nc2nccc(-c3ccn(C4(CC#N)CN(C(=O)CC#N)C4)n3)n2)cn1` [TDM-180861, 3-(3-(cyanomethyl)-3-(3-(2-((1-methyl-1H-pyrazol-4-yl)amino)pyrimidin-4-yl)-1H-pyrazol-1-yl)azetidinpiperazin-1-yl)-3-oxypropionitrile], the IC50 in assay [1] and in assay [2] was 1 to 10 µM throughout.
For the molecule `Cn1cc(Nc2nccc(-c3cnn(C4(CC#N)CN(S(=O)(=O)CC5CC5)C4)c3)n2)cn1` [TDM-180931, 2-(1-((cyclopropylmethyl)sulfonyl)-3-(4-(2-((1-methyl-1H-pyrazol-4-yl)amino)pyrimidin-4-yl)-1H-pyrazol-1-yl)azetidin-3-yl)acetonitrile], the IC50 in assay [1] and in assay [2] was 0.1 to 1 µM throughout.
Regarding `Cn1cc(Nc2nccc(-c3ccc(C4(CC#N)CN(C(=O)C5CC5(F)F)C4)cc3)n2)cn1` (centres unmarked) [TDM-180872, 2-(1-(2,2-difluorocyclo-1-carbonyl)-3-(4-(2-((1-methyl-1H-pyrazol-4-yl)amino)pyrimidin-4-yl)phenyl)azetidin-3-yl)acetonitrile], the half-inhibitory concentration (IC50) in assay [1] and in assay [2] was 0.1 to 1 µM each time.
As for `Cn1cc(Nc2nccc(-c3ccn(C4(CC#N)CN(C(=O)CO)C4)c3)n2)cn1` [TDM-180786], the IC50 in assay [1] and in assay [2] was 1 to 10 µM each time.
For `Cn1cc(Nc2nccc(-c3ccc(C4(CC#N)CN(C(=O)C5CC5)C4)cc3)n2)cn1` [TDM-180880, 2-(1-(cyclopropanecarbonyl)-3-(4-(2-((1-methyl-1H-pyrazol-4-yl)amino)pyrimidin-4-yl)phenyl)azetidin-3-yl)acetonitrile], the IC50 in assay [1] and in assay [2] was 1 to 10 µM throughout.
For the molecule `Cn1cc(Nc2nccc(-c3ccn(C4(CC#N)CN(S(=O)(=O)C5CCOCC5)C4)n3)n2)cn1` [TDM-180912, 2-(3-(3-(2-((1-methyl-1H-pyrazol-4-yl)amino)pyrimidin-4-yl)-1H-pyrazol-1-yl)-1-((tetrahydro-2H-pyran-4-yl)sulfonyl)azetidin-3-yl)acetonitrile], the IC50 in assay [1] lay in the range of 1 to 10 µM; in assay [2], 0.1 to 1 µM.
Regarding `Cn1cc(Nc2nccc(-c3ccn(C4(CC#N)CN(S(=O)(=O)CC(F)(F)F)C4)c3)n2)cn1` [TDM-180866, 2-(3-(3-(2-((1-methyl-1H-pyrazol-4-yl)amino)pyrimidin-4-yl)-1H-pyrrol-1-yl)-1-((2,2,2-trifluoroethyl)sulfonyl)azetidin-3-yl)acetonitrile], the IC50 in assay [1] and in assay [2] was less than 0.1 µM in each case.
Regarding `Cn1cc(Nc2nccc(-c3cnn(C4(CC#N)CN(S(=O)(=O)CC(F)(F)F)C4)c3)n2)cn1` [TDM-180928, 2-(3-(4-(2-((1-methyl-1H-pyrazol-4-yl)amino)pyrimidin-4-yl)-1H-pyrazol-1-yl)-1-((2,2,2-trifluoroethyl)sulfonyl)azetidin-3-yl)acetonitrile], the results for the IC50 in assay [1] and in assay [2] were less than 0.1 µM and 0.1 to 1 µM, respectively.
